Source: ChEMBL document CHEMBL5050858, “Polyheterocyclic compounds as mettl3 inhibitors” (2021)

Biological target: METTL3/METTL14 (Homo sapiens, UniProt Q86U44)
Assay: Inhibition of full-length His-tagged METTL3 (unknown origin) coexpressed with full-length FLAG-tagged METTL14 (unknown origin) expressed in baculovirus expression system using 5'P-uacacucgaucuggacuaaagcugcuc-3' RNA as substrate pre-incubated for 10 mins and followed by substrate addition and measured after 60 mins by methyltransferase assay

METTL3/METTL14, sequence (Q86U44 whole entry): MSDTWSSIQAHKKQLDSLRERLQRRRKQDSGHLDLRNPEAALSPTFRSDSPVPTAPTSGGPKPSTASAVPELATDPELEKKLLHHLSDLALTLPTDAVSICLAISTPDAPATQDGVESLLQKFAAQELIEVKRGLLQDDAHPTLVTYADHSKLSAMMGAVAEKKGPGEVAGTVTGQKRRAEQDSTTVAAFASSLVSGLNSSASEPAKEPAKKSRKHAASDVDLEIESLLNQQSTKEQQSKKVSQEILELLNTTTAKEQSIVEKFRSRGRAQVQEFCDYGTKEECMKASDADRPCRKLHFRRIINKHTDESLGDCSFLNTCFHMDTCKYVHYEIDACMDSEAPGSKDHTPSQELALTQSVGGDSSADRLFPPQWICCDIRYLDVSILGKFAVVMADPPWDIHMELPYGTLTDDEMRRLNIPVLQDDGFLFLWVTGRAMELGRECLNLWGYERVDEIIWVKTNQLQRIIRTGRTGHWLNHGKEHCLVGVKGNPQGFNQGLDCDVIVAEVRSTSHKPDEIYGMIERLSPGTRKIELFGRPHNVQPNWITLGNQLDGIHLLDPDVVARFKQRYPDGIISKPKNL
METTL3/METTL14, sequence (Q9HCE5 whole entry, further chain): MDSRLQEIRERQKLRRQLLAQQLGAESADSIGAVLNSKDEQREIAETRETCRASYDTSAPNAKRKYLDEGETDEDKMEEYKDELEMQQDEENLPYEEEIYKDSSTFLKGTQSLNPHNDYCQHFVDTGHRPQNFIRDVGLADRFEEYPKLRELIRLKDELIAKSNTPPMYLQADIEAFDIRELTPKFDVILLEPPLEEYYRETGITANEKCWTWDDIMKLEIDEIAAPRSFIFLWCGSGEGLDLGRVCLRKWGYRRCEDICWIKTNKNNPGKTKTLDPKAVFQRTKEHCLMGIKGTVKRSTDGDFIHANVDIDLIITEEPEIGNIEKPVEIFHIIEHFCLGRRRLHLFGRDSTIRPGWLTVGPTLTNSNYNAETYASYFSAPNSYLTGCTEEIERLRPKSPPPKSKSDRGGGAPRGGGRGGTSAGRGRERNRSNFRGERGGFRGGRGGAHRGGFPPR

Structure (SMILES) | IC50 [nM]
O=C(NCc1ccc2cc(CCN3CC4(CCC4)C3)[nH]c2c1)c1cc(=O)n2ccccc2n1 | 118
O=C(NCc1ccc2cc(CN3CC(C4CC4)C3)[nH]c2c1)c1cc(=O)n2ccccc2n1 | 9.24
